Laboratory results from US20250114313A1, “OLIGO-BENZAMIDE ANALOGS AND THEIR USE IN CANCER TREATMENT” (BOARD OF REGENTS, THE UNIVERSITY OF TEXAS SYSTEM, priority 2022, published 2025).

How the values were obtained:
four distinct TNBC PDXs = assay: TNBC PDXs in mammary fat pad; type: in vivo, mice; conditions: daily oral, 10 mg/kg/day
Protocol: Animal Studies: All animal experiments were performed using UTHSA and UTSW IACUC approved protocols. For cell based xenograft tumor assays, TNBC cells (2×10^5-2×10^6) were mixed with an equal volume of matrigel and implanted in the mammary fat pads of 6-week-old female athymic nude mice as described^33. BALB/c mice were used for D2A1 syngeneic model. Once tumors reached measurable size, mice were divided into control (vehicle) and ERX-41 (10 mg/kg/oral) treatment groups. Mice bearing TNBC PDX tumors were purchased from Jackson laboratory (TM00089; TM00096; TM00098). TNBC PDX line UTPDX0001 establishment was earlier described^38. WHIM-20 ER+PDX model was purchased from Horizon Labs. OCa-PDX-38 was received from UTHSA ObGyn tissue procurement core. When tumors reached ˜750 mm^3 they were dissected into 2 mm^3 pieces and implanted into the mammary fat pads of 6 weeks old female SCID or NSG mice. When the tumor volume reached ˜200 mm^3, mice were randomized for treatment. The mice were monitored daily for adverse toxic effects and tumor volume was measured every 3-4 days using calipers. For establishing ES2 tumors, ES2/GFP/LUC cells were injected i.p. and tumors were measured twice a week using Xenogen in vivo imaging system. […] The mice were monitored daily for adverse toxic effects. […] The sections were scored by two independent evaluators blinded to the patient's clinical status.

[1] = system: 21 human preclinical TNBC cell line models; assay: WST-1 assay, TNBC cell lines; type: cell-based; conditions: 21 TNBC cell lines, all six molecular subtypes, read-out: anti-proliferative IC50, WST-1
Protocol: (§1) Cell viability assays: Cells were seeded in 96-well plates (2×10^3 cells/well) one day before the treatment. Cells were treated with varying concentrations of ERX-41 or ERX-11 analogs for 3-6 days. Then effects of ERX-41 or ERX-11 analogs on cell viability were measured in triplicate or sextuplicate with multiple biological replicates using the WST-1 (Promega), MTT as previously described^33 or CellTiter-Glo 2.0 (Promega) assays.

HMEC cells = assay: Live cell imaging with SYTOX Green, cell death in HMEC; type: cell-based
Protocol: Live cell imaging: Live cell images were acquired by Lionheart FX automated microscope (BioTek). Cells were plated one day before the experiment. For cell death assay, 0.2 μM SYTOX Green was added into the plate 15 min before the experiment.

[2] = system: MDA-MB-231 cells with LIPA KO; assay: CellTiter-Glo response of MDA-MB-231 knockout clones; type: cell-based, Human
Protocol: as §1
CRISPR Screen: Human Brunello CRISPR knockout pooled library was purchased from Addgene (Addgene #73178) (via David Root and John Doench). The library containing lentivirus was transduced into cells in biological replicates or triplicates at a multiplicity of infection (MOI) of ˜0.5 and a minimum of 500× coverage. Two days later after transduction, uninfected cells were removed with puromycin selection. The library containing cells was treated with vehicle or ERX-41 for 2 weeks. Genomic DNA was extracted from same number of cells. The sgRNA cassette retrieved by PCR, followed by Next Generation Sequencing (NGS). NGS data was analyzed by MAGeCK (Li et al., Genome Biology, 2014 PMID: 25476604).
Lentiviral constructs cloning: LentiCRISPRv2 vector was used for CRSPR KO experiments. sgRNAs, which were chosen from human CRISPR knockout pooled library, were cloned into lentiCRISPRv2 vector^34. […]

[3] = system: SUM-159 cells with LIPA KO; assay: UPR induction and protein synthesis in SUM-159 cells with LIPA KO (RNA-seq, RT-qPCR, western); type: cell-based, Human; conditions: 1 μM, 4 h
Protocol: Western blotting: Whole cell lysates from breast cancer cells were prepared with 2× sample buffer (60 mM Tris-HCl, pH 6.8, 2% sodium dodecyl sulfate, 10% glycerol), and before loading mixed with loading buffer (5% 2-mercaptoethanol, 0.1% bromophenol blue) and boiled for denaturation, as previously described.^33 Proteins were separated by SDS-PAGE and subjected to Western analysis using antibodies. To detect nascent translated proteins, puromycin (final concentration 10 μg/mL) was added into cell plates 30 minutes before harvesting cells. Then samples were subjected to the Western blotting. Nascent proteins were detected by anti-puromycin antibody.
Real-time quantitative PCR (RT-qPCR): Total RNA was prepared from breast cancer cells using the RNeasy Mini Kit (Qiagen) according to the manufacturer protocols. Subsequently, total RNAs were reverse transcribed into cDNA using iScript Reverse Transcription Supermix (Bio-rad) and by using SYBR Green on an Illumina Real-Time PCR system.
RNA-sequencing: mRNA-seq sequencing library construction was performed using TruSeq RNA Library Preparation Kit (Illumina) according to the manufacturer's instructions. FASTQ reads from Genomics Core at UTSW were mapped to Human GRCh38 genome using HiSAT2 (RRID:SCR_015530). Differential expression analysis is performed using DEseq2 (RRID:SCR_015687). Abundances of transcripts are calculated using ballgown (Frazee et al. 2014). The values of Fragments Per Kilobase of transcript per Million mapped reads (FPKM) were used for Gene Set Enrichment Analysis (GSEA). GSEA was performed by using the GSEA software (RRID:SCR_005724) and C5 ontology gene sets (14765 gene sets in total). mRNA-seq data from this study are available from NCBI GEO under accession #GSE168800.

## CC(C)COc1cc(C(=O)Nc2ccc(C(=O)N[C@H]3CC[C@H](C)CC3)cc2OCC(C)C)ccc1NC(=O)c1ccc([N+](=O)[O-])c(OCCO)c1 [ERX-41]
Four distinct TNBC PDXs
  rates of growth of PDX tumors: significantly decreased the rates of growth of the tumors
[1]
  IC50: < 500 nM
HMEC cells
  induction of cell death in HMEC: did not significantly induce cell death
[2]
  effect of LIPA knockout on cytotoxic response: abrogate the cytotoxic response to ERX-41
[3]
  genes altered by RNA sequencing in LIPA KO cells: no genes significantly altered
